Measurements as given in article PMC11396062, “The n-Butanol Extract Obtained from the Inner Bark of Tabebuia rosea (Bertol.) DC, Specioside, and Catalposide Induce Leukemia Cell Apoptosis in the Presence of Apicidin” (Molecules, 2024).
Converted amounts (≈) assume the structure as drawn. Where two headings read alike, the source gives them in different places.

Legend:
Type in all cases: cell-based, human
Jurkat cells = assay: MTT cell viability assay, Jurkat cells; conditions: for IC50: Homo sapiens, Jurkat, MTT, n = 3; for SI (selectivity index): IC50 PBMC / IC50 Jurkat
Method: (§1) Jurkat and THP-1 cell lines were purchased from the American Type Culture Collection (ATCC, Rockville, MD, USA); Jurkat is a human lymphocytic cell line representing acute T-cell leukemia, and THP-1 is a monocytic cell line that represents acute myelogenous leukemia (AML). […] Cat Nos. […] The cells were maintained at 37 °C in a humidified atmosphere with 5% CO2. The culture medium was exchanged with fresh medium every 2-3 days. Peripheral blood mononuclear cells (PBMCs) were isolated from normal human venous blood. Further, 10 milliliters of human blood was mixed with 10 mL of RPMI-1640 containing 50 μL of heparin and gradually poured over 1 mL of HISTOPAQUE®-1119 (Sigma). The plasma was removed by centrifugation at 3000 rpm for 30 min. The peripheral blood mononuclear cell-containing layer was collected with a pipette and diluted in 4 mL of PBS. PBMCs were harvested by centrifugation at 1500 rpm for 10 min at room temperature, resuspended in RPMI-1640 with 10% FBS, and incubated at 37 °C in 5% CO2 humidified air. […] Doxorubicin was used as a reference standard drug (positive control). After treatment, the medium was discarded; 200 μL of RPMI 1640 medium without phenol red containing 0.5 mg/mL MTT (Sigma Chemical Co., Saint Louis, MO, USA; Cat. No. […] The plates were incubated for four hours at 37 °C with 5% CO2 in a humidified atmosphere. The medium was discarded, and 100 μL of DMSO was added to solubilize the formazan crystals. The absorbance was measured with an ELISA microplate reader at 492 nm (ELx800; BioTek Instruments Inc., Winooski, VT, USA). The percentage of viable cells was calculated on the basis of the nontreated control (taken as 100%). […] Three independent assays were performed, each in triplicate. The selectivity index corresponds to the ratio of the IC50 value calculated for the activity of synthesized compounds on a regular cell line (PBMCs) to that of the IC50 calculated for cancer cell lines (Jurkat and THP-1). Values greater than two were optimal for an efficient selectivity index.

BAX = assay: Western blot Bax protein; conditions: THP-1, catalposide 44 and 66 μg/mL, specioside 20, 40 and 60 μg/mL
Method: (§2) THP-1 cells were seeded in 24-well plates (5 × 10^5 cells/well), and after 24 h of incubation, they were pretreated with 1 µM apicidin for 24 h and then treated with different concentrations of the n-butanol extract, catalposide, and specioside for 24 h. After treatment, the cells were lysed with an Abcam protein extraction kit (ab270054), and a phosphatase inhibitor cocktail (ab201115) was added. The supernatants of the cell extracts were quantified with a BCA protein assay (Thermo Scientific Pierce #23227, Waltham, MA, USA). Equivalent amounts of protein were electrophoresed on 10% SDS polyacrylamide gels and then electroblotted onto 0.45 μm polyvinylidene difluoride (PVDF) membranes (GE Healthcare, Chicago, IL, USA). […] The signals were detected using SuperSignal™ West Pico PLUS Chemiluminescent Substrate (Thermo Scientific Pierce cat 34577) and analyzed with a ChemiDoc XRS+ system (Bio-Rad, Hercules, CA, USA). The density of each band was measured using ImageJ software V. 1.53n, 7 November 2021 (NIH, Bethesda, MD, USA), and the protein levels were normalized to the GAPDH levels. The data are expressed as the means of three independent experiments. […]

Bcl-2 = assay: Western blot Bcl-2 protein; conditions: THP-1, catalposide 44 μg/mL, specioside 40 μg/mL, APC pretreatment (Figure 9)
Method: as §2

ERK = assay: Western blot ERK phosphorylation; conditions: THP-1, 24 h
Method: as §2

THP-1 cells = assay: MTT cell viability assay, THP-1 cells; conditions: for IC50: MTT, n = 3
Method: as §1

[1] = Homo sapiens, THP-1, 12 h, read-out: IC50
[2] = Homo sapiens, THP-1, 24 h, read-out: IC50
[3] = Homo sapiens, THP-1, 48 h, read-out: IC50

O=C(O[C@H]1[C@@H]2C=CO[C@@H](O[C@@H]3O[C@H](CO)[C@@H](O)[C@H](O)[C@H]3O)[C@@H]2[C@@]2(CO)O[C@@H]12)c1ccc(O)cc1 [Catalposide, catalposide]
IC50 (Jurkat cells; 12 h): 107 ± 5.3 µg/mL (≈ 221 µM)
IC50 (Jurkat cells; 24 h): 92.8 ± 1.5 µg/mL (≈ 192 µM)
IC50 (Jurkat cells; 48 h): 71.2 ± 2.8 µg/mL (≈ 148 µM)
SI (selectivity index) (Jurkat cells; 12 h): 1.18
SI (selectivity index) (Jurkat cells; 24 h): 0.94
SI (selectivity index) (Jurkat cells; 48 h): 0.61
expression of Bax protein with APC pretreatment (BAX): increased
antiapoptotic protein Bcl-2 (Western blot) (Bcl-2): decrease
phosphorylation of the ERK protein compared with control (ERK): decreased protein phosphorylation but not significantly
IC50 (THP-1 cells; [1]): 122 ± 3.3 µg/mL (≈ 252 µM)
IC50 (THP-1 cells; [2]): 43.9 µg/mL (≈ 91 µM)
IC50 (THP-1 cells; [3]): 30.2 ± 1.67 µg/mL (≈ 62.5 µM)
SI (selectivity index) (THP-1 cells; IC50 PBMC / IC50 THP-1, 12 h): 1.03
SI (selectivity index) (THP-1 cells; IC50 PBMC / IC50 THP-1, 24 h): 1.99
SI (selectivity index) (THP-1 cells; IC50 PBMC / IC50 THP-1, 48 h): 1.44
IC50 (THP-1 cells; THP-1, 24 h): 43.86 ± 2.2 µg/mL (≈ 90.9 µM)

O=C(/C=C/c1ccc(O)cc1)O[C@H]1[C@@H]2C=CO[C@@H](O[C@@H]3O[C@H](CO)[C@@H](O)[C@H](O)[C@H]3O)[C@@H]2[C@@]2(CO)O[C@@H]12 [Specioside]
IC50 (Jurkat cells; 12 h): 137.7 ± 1.3 µg/mL (≈ 271 µM)
IC50 (Jurkat cells; 24 h): 81.7 ± 3.5 µg/mL (≈ 161 µM)
IC50 (Jurkat cells; 48 h): 68.9 ± 2.1 µg/mL (≈ 135 µM)
SI (selectivity index) (Jurkat cells; 12 h): 1.20
SI (selectivity index) (Jurkat cells; 24 h): 0.86
SI (selectivity index) (Jurkat cells; 48 h): 0.79
expression of Bax protein with APC pretreatment (BAX): increased
antiapoptotic protein Bcl-2 (Western blot) (Bcl-2): decrease
phosphorylation of the ERK protein compared with control (ERK): did not significantly change
IC50 (THP-1 cells; [1]): 47.2 ± 2.3 µg/mL (≈ 92.9 µM)
IC50 (THP-1 cells; [2]): 40.3 µg/mL (≈ 79.3 µM)
IC50 (THP-1 cells; [3]): 26.3 ± 6.8 µg/mL (≈ 51.8 µM)
SI (selectivity index) (THP-1 cells; IC50 PBMC / IC50 THP-1, 12 h): 3.49
SI (selectivity index) (THP-1 cells; IC50 PBMC / IC50 THP-1, 24 h): 1.75
SI (selectivity index) (THP-1 cells; IC50 PBMC / IC50 THP-1, 48 h): 2.06
IC50 (THP-1 cells; THP-1, 24 h): 40.32 ± 1.3 µg/mL (≈ 79.3 µM)
